The results in this text go back to PubChem BioAssay (NCI).

Among the test systems are HOP-62 NSCLC; HL-60(TB) leukemia; SF-295 CNS; SNB-19 CNS; MCF7 breast; SF-268 CNS; SK-MEL-5 melanoma; OVCAR-4 ovarian; HCT-116 colon; HOP-92 NSCLC.
Holding throughout (assay): NCI anticancer screen, dose series, 48 h

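48-hour exposure; five concentrations; linearly interpolated endpoints. GI50: concentration for 50% inhibition of growth. TGI is the concentration that stops growth completely.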

In the case of `C=C(Cn1c(=O)c2ccccc2c2ccccc21)c1ccc(C(=O)Nc2ccccc2N)cc1`, the GI50 with HOP-62 NSCLC is 40.9 µM; in the assay with HL-60(TB) leukemia, 0.188 µM; with SF-295 CNS, above 79.7 µM; with SNB-19 CNS, 42.9 µM; with MCF7 breast, 69.8 µM; in the assay on SF-268 CNS, 12.6 µM. The GI50 in the assay with SK-MEL-5 melanoma was 20.6 µM; in the assay on OVCAR-4 ovarian, 5.22 µM; in the assay with HCT-116 colon, 15.2 µM; in the assay on HOP-92 NSCLC it was 0.689 µM. For the same compound, the TGI in the assay with HOP-62 NSCLC, in the assay on SF-295 CNS, in the assay on SNB-19 CNS, with MCF7 breast, in the assay with SF-268 CNS and with SK-MEL-5 melanoma was above 100 µM throughout. Besides, the TGI was above 100 µM in the assay with OVCAR-4 ovarian, above 100 µM in the assay with HCT-116 colon and 26.1 µM in the assay with HOP-92 NSCLC.

In the case of `COc1ccc(-c2[nH]ncc2-c2cc3c(c(OC)c2)OCC(=O)N3)cc1`, the GI50 in the assay with HOP-62 NSCLC was 0.544 µM; in the assay with HL-60(TB) leukemia it was 0.352 µM; in the assay on SF-295 CNS, 0.398 µM; with SNB-19 CNS, 0.619 µM; in the assay on MCF7 breast, 0.315 µM; in the assay with SF-268 CNS it was 0.935 µM. In addition, the GI50 with SK-MEL-5 melanoma is 0.595 µM; in the assay with OVCAR-4 ovarian, 2.91 µM; with HCT-116 colon, 0.403 µM; with HOP-92 NSCLC it was 1.11 µM. Besides, the TGI with HOP-62 NSCLC is 80.3 µM; in the assay on HL-60(TB) leukemia, 2.06 µM; with SF-295 CNS, 15.2 µM; in the assay on SNB-19 CNS, above 100 µM; in the assay on MCF7 breast, 62.4 µM; in the assay with SF-268 CNS, above 100 µM. Besides, the TGI with SK-MEL-5 melanoma was 12.8 µM; in the assay on OVCAR-4 ovarian, 77.9 µM; with HCT-116 colon, above 100 µM; in the assay on HOP-92 NSCLC it was 99.7 µM.

`Cc1cc(C)nc(NC(N)=NCCc2ccccc2)n1`: the GI50 with HOP-62 NSCLC is 3.16 µM; with HL-60(TB) leukemia, 2.9 µM; with SF-295 CNS it was 1.64 µM; with SNB-19 CNS it was 4.55 µM; in the assay with MCF7 breast, 2.72 µM; in the assay on SF-268 CNS, 3.4 µM. Besides, the GI50 in the assay on SK-MEL-5 melanoma is 1.75 µM; with OVCAR-4 ovarian, 5.35 µM; with HCT-116 colon, 2.78 µM; in the assay with HOP-92 NSCLC, 3.97 µM. Moreover, the TGI in the assay on HOP-62 NSCLC is 53.1 µM; in the assay with HL-60(TB) leukemia, 12.4 µM; with SF-295 CNS it was 5.44 µM; in the assay on SNB-19 CNS, above 100 µM; with MCF7 breast it was 73.6 µM; in the assay with SF-268 CNS, 41.9 µM. Further, the TGI in the assay with SK-MEL-5 melanoma is 5.39 µM; in the assay with OVCAR-4 ovarian it was above 100 µM; with HCT-116 colon it was above 100 µM; in the assay with HOP-92 NSCLC it was 73.1 µM.

Consider `N#Cc1cc(C#N)c(Cl)nc1N`, for which the TGI with HOP-62 NSCLC, with HL-60(TB) leukemia, in the assay on SF-295 CNS, with SNB-19 CNS, in the assay on MCF7 breast and in the assay with SF-268 CNS was above 10 µM in each case. For the same compound, the TGI in the assay with SK-MEL-5 melanoma, in the assay on OVCAR-4 ovarian, in the assay on HCT-116 colon and in the assay with HOP-92 NSCLC was above 10 µM in each case.

For the compound `Nc1ccn(C2OC(CO)C(O)C2F)c(=O)n1` (stereo not drawn), the GI50 in the assay with HOP-62 NSCLC is above 5000 µM; in the assay with HL-60(TB) leukemia it was 189 µM; in the assay with SF-295 CNS, above 5000 µM; in the assay with SNB-19 CNS, 19.5 µM; with MCF7 breast it was 2.98 µM; in the assay on SF-268 CNS, above 5000 µM. Further, the GI50 with SK-MEL-5 melanoma, with OVCAR-4 ovarian, with HCT-116 colon and in the assay with HOP-92 NSCLC was above 5000 µM each time. For the same compound, the TGI in the assay on HOP-62 NSCLC, in the assay on SF-295 CNS, with SNB-19 CNS, in the assay on MCF7 breast, with SF-268 CNS and with SK-MEL-5 melanoma was above 5000 µM throughout. Also, the TGI in the assay with OVCAR-4 ovarian, in the assay on HCT-116 colon and with HOP-92 NSCLC was above 5000 µM each time.

`C[n+]1c(/C=C\C=C\N2CCCCC2)sc2ccccc21`: the GI50 in the assay on HOP-62 NSCLC is 2.26 µM; in the assay with HL-60(TB) leukemia it was 0.166 µM; in the assay with SF-295 CNS, 0.385 µM; in the assay with SNB-19 CNS, 0.538 µM; with MCF7 breast, 0.346 µM; in the assay on SF-268 CNS, 0.457 µM. The GI50 with SK-MEL-5 melanoma was 0.276 µM; with OVCAR-4 ovarian, 0.479 µM; with HCT-116 colon, 0.308 µM; with HOP-92 NSCLC, 0.0758 µM. The TGI was above 38.2 µM in the assay on HOP-62 NSCLC; 0.737 µM in the assay with HL-60(TB) leukemia; 2.36 µM in the assay with SF-295 CNS; 17.2 µM in the assay with SNB-19 CNS; 11.8 µM in the assay on MCF7 breast; 14.8 µM with SF-268 CNS. Besides, the TGI in the assay with SK-MEL-5 melanoma was 1.5 µM; in the assay on OVCAR-4 ovarian it was above 42.4 µM; in the assay on HCT-116 colon, above 32.1 µM; with HOP-92 NSCLC, 2.16 µM.

Consider `C(=Nc1ccccc1)C1CCCC[N-]1.C(=Nc1ccccc1)C1CCCC[N-]1.[Cu+2].[O-][Cl+3]([O-])([O-])O` (stereo not drawn), for which the GI50 is 15.5 µM with HOP-62 NSCLC; 6.26 µM with HL-60(TB) leukemia; 3.13 µM in the assay on SF-295 CNS; 9.94 µM with SNB-19 CNS; 23.8 µM in the assay on MCF7 breast; 26.9 µM in the assay with SF-268 CNS. Besides, the GI50 is 8.64 µM with SK-MEL-5 melanoma, 26 µM in the assay on OVCAR-4 ovarian, 7.3 µM in the assay on HCT-116 colon and 23 µM with HOP-92 NSCLC. For the same compound, the TGI with HOP-62 NSCLC is 54.6 µM; in the assay with HL-60(TB) leukemia, 31.5 µM; in the assay with SF-295 CNS it was 18.8 µM; in the assay on SNB-19 CNS, 38.4 µM; in the assay on MCF7 breast, above 100 µM; in the assay with SF-268 CNS it was above 89.6 µM. In addition, the TGI with SK-MEL-5 melanoma is 27.7 µM; with OVCAR-4 ovarian, 84.4 µM; in the assay with HCT-116 colon, 28.8 µM; in the assay on HOP-92 NSCLC, above 73.9 µM.

As for `CCCN(CCC)CCCNCc1cc(I)cc(C)c1O`, the GI50 in the assay with HOP-62 NSCLC was 13.4 µM; in the assay on HL-60(TB) leukemia, 13.8 µM; in the assay with SF-295 CNS it was 13.7 µM; with SNB-19 CNS, 18.2 µM; with MCF7 breast, 17.6 µM; in the assay on SF-268 CNS, 15.9 µM. Besides, the GI50 was 6.83 µM with SK-MEL-5 melanoma, 17.9 µM with OVCAR-4 ovarian, 7.9 µM in the assay with HCT-116 colon and 5.04 µM in the assay on HOP-92 NSCLC. Besides, the TGI with HOP-62 NSCLC came to 26.2 µM; in the assay on HL-60(TB) leukemia it was 29.8 µM; with SF-295 CNS, 27 µM; in the assay on SNB-19 CNS, 40.8 µM; with MCF7 breast, 31.8 µM; with SF-268 CNS, 29.4 µM. In addition, the TGI in the assay on SK-MEL-5 melanoma turned out to be 19.3 µM; with OVCAR-4 ovarian, 37.8 µM; in the assay with HCT-116 colon, 20.5 µM; in the assay on HOP-92 NSCLC, 18.6 µM.
